Results on one compound are retold here after patent publication US20240034929A1, “SCINTILLATION MATERIALS AND METHODS” (Florida State University Research Foundation, Inc., priority 2022, published 2024).

This data set in a line: Thermogravimetric analysis (thermal stability). It counts as physicochemical. As to conditions: heated from room temperature to 700° C. at 5° C./min under argon flux. An excerpt:
More detailed crystallographic results are provided in FIGS. 17a and 17b and the table in FIG. 7. The 0D structure at the molecular level was clearly observed in (TPA-P)2ZnBr4 with ZnBr4^2− tetrahedrons completely isolated and surrounded by TPA-P^+ cations. The zinc center adopted a typical tetra-coordinated geometry bonded to the bromide ions, with an average Zn—Br bond length of 2.41 Å and bond angle of 109.740 (see also the table in FIG. 8).
Thermal Stability Analysis: TGA studies were done using a TA instruments Q600 system. The sample was heated from room temperature to 700° C. at a 5° C./min rate under an argon flux of 100 ml/min.

In the case of `CCC[n+]1ccc(-c2ccc(N(c3ccccc3)c3ccccc3)cc2)cc1.[Br-]` [TPA-PBr, 4-(4-(diphenylamino)phenyl)-1-(Propyl)-pyrindin-lium bromide], the “onset weight loss (thermogravimetric analysis)” value came out at 211 °C.
